According to patent US11958831B2, “Pyrazole compounds, pharmaceutical compositions thereof and use thereof” (ARTIVILA (SHENZHEN) INNOVATION CENTER, LTD., priority 2018, dated 2024):

Assays:
IRAK4 kinase = IRAK4 kinase (Homo sapiens (Human), UniProt Q9NWZ3); experiment: IRAK4 kinase activity assay (mobility shift, Km ATP); assay type: biochemical; settings: Km ATP (15.6 μM ATP), 1 nM IRAK4, 60 min room temperature
Experimental: Inhibitory activity (IC50) of the compounds against IRAK4 kinase under Km ATP was detected through mobility spectrum analysis (MSA). IRAK4 kinase was purchased from Carna (Cat. No.: 09-145, batch No.: 14CBS-0020H), and Kinase Substrate 8 was purchased from GL Biochem (Cat. No.: 112396, batch No.: P171207-MJI112396).
The compounds were prepared with DMSO to 100 times the final reaction concentration and diluted to 10 concentrations in sequence at a 3-fold dilution ratio starting from 1 μM. Then 0.25 μL was transferred to a 384-well plate using Echo550. A 1× kinase buffer (50 mM HEPES, pH=7.5, 0.0015% Brij-35, 10 mM MgCl2, 2 mM DTT) was used to prepare a kinase solution of 2.5 times the final concentration. Then 10 μL of the kinase solution of 2.5 times the final concentration was added to each compound well, shaken and mixed uniformly, and incubated at room temperature for 10 min. A 1× kinase buffer was used to prepare a mixed solution of ATP and substrate Kinase Substrate 8 with a concentration of 25/15 times the final concentration. 15 μL of the mixed solution of ATP and the substrate with a concentration of 25/15 times the final concentration were added to each well (the final concentration of IRAK4 kinase was 1 nM, the final concentration of the substrate was 3 μM, and the final concentration of ATP was 15.6 μM), shaken and mixed uniformly, and reacted at room temperature for 60 min. Finally, 30 μL of stopping solution (100 mM HEPES, pH=7.5, 0.0015% Brij-35, 0.2% Coating Reagent #3, 50 mM EDTA) was added to terminate the reaction. CaliperEZ Reader II was used to read data about conversion rates that was then converted into data about inhibition rates. According to the data about the inhibition rate at each concentration, the half maximal inhibitory concentration (IC50) (Table 1) was calculated by a Logit method.

[1] = test system: TNFα secretion in THP-1 cells; experiment: Cellular activity assay: LPS-stimulated TNFα secretion in THP-1 cells (ELISA); assay type: cell-based; settings: Homo sapiens, LPS 1 μg/mL, 4.5 h, read-out: IC50 inhibiting TNFα secretion in THP-1 cells stimulated by LPS
Experimental: Inhibition of IRAK4 by the compounds of the present application was evaluated in THP-1 cells for cellular activity. The stimulus used in this experiment was LPS. LPS is a TLR4 agonist that stimulates the secretion of TNFα through TLR-IRAK4 signaling pathway in the THP-1 cells. Once the signaling pathway is inhibited by IRAK4 inhibitors, the production of TNFα is inhibited. In this experiment, the secretion of TNFα was detected by ELISA.
150 μL of RPMI-1640 medium (Gibco, catalog No.: 11875-085) solution containing 10000 THP-1 cells were added to each well of a 96-well plate and then 25 μL of a test compound solution of 8 times the final concentration (starting from […], 3-fold dilution, 8 concentrations, each concentration containing 4% DMSO RPMI-1640 medium) were added, and they were mixed uniformly and incubated at 37° C. for 30 min. 25 μL of RPMI-1640 medium solution containing LPS were added to each well (the final LPS concentration was 1 μg/mL and the final DMSO concentration was 0.5%), mixed uniformaly, and incubated at 37° C. for 4.5 h. The 96-well plate was rotated at 2000 rpm for 5 min, then 50 μL of supernatant was taken, and the TNFα content in the supernatant was determined with a human ELISA kit (Life Technologies, catalog No.: KHC3011). The IC50 (Table 2) of the compound was calculated by XL-Fit.

IRAK4 kinase, sequence (Q9NWZ3 whole entry): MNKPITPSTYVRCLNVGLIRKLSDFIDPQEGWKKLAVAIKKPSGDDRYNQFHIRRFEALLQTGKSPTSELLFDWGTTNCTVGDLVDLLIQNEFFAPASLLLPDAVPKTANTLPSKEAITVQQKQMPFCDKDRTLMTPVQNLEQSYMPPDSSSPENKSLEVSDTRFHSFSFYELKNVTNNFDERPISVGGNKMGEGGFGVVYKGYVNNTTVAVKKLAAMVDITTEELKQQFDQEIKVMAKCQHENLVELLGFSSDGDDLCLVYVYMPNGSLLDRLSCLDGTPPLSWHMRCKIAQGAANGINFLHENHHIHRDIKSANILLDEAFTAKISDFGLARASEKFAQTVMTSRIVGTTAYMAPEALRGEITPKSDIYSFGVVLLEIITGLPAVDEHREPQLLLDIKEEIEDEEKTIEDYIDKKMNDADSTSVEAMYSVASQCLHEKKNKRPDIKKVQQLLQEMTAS

`CC(=O)N1CCC(N2CC(n3cc(NC(=O)c4cccc(-c5cnn(CC(F)F)c5)n4)c(C(F)F)n3)C2)CC1` [Example 1, N-(1-(1-(1-acetylpiperidin-4-yl)azetidin-3-yl)-3-(difluoromethyl)-1H-pyrazol-4-yl)-6-(1-(2,2-difluoroethyl)-1H-pyrazol-4-yl)-2-picolinamide] showed an IC50 (IRAK4 kinase) of 1.2 nM and an IC50 [1] of 29 nM.
`C[C@@H](O)C(=O)N1CCC(N2CC(n3cc(NC(=O)c4cccc(-c5cc[nH]n5)n4)c(C(F)F)n3)C2)CC1` [Example 40, (R)—N-(3-(difluoromethyl)-1-(1-(1-(2-hydroxypropionyl)piperidin-4-yl)azetidin-3-yl)-1H-pyrazol-4-yl)-6-(1H-pyrazol-3-yl)-2-picolinamide] was tested, and the IC50 (IRAK4 kinase) was 0.59 nM and the IC50 [1] was 26 nM.
`CC(=O)N1CCC(N2CC(n3cc(NC(=O)c4cccc(-c5cnn(C(C)(C)CN)c5)n4)c(C(F)F)n3)C2)CC1` [Example 13, N-(1-(1-(1-acetylpiperidin-4-yl)azetidin-3-yl)-3-(difluoromethyl)-1H-pyrazol-4-yl)-6-(1-(1-amino-2-methylpropan-2-yl)-1H-pyrazol-4-yl)-2-picolinamide] was tested, and the IC50 (IRAK4 kinase) was 0.73 nM and the IC50 [1] was 25 nM.
With `CC(C)(O)C(=O)N1CCC(N2CC(n3cc(NC(=O)c4cccc(-c5cc[nH]n5)n4)c(C(F)F)n3)C2)CC1` [Example 41, N-(3-(difluoromethyl)-1-(1-(1-(2-hydroxy-2-methylpropionyl)piperidin-4-yl)azetidin-3-yl)-1H-pyrazol-4-yl)-6-(1H-pyrazol-3-yl)-2-picolinamide] the IC50 (IRAK4 kinase) was 0.43 nM and the IC50 [1] was 23 nM.
